The values that follow come from patent publication US20170280720A1, “ARGININE […] INHIBITORS AND USES THEREOF” (EPIZYME, INC., priority 2014, published 2017).

Structures are written as SMILES.

One may read the IC50 as the concentration needed to halve the response being measured.

The target in one experiment is T1, human PRMT1 (Homo sapiens, UniProt Q99873).
T1 construct: GST-tagged PRMT1; made in house; host or cells: High Five insect cells (baculovirus, pFastBacI)
Kind of experiment: PRMT1 biochemical assay (3H-SAM Flashplate, peptide substrate). The conditions noted are these: read-out: PRMT1_ IC50. From the text: S-adenosylmethionine (SAM), S-adenosylhomocysteine (SAH), bicine, Tween20, dimethylsulfoxide (DMSO), bovine skin gelatin (BSG), and Tris(2-carboxyethyl)phosphine hydrochloride solution (TCEP) were purchased from Sigma-Aldrich at the highest level of purity possible. ^3H-SAM was purchase from American Radiolabeled Chemicals with a specific activity of 80 Ci/mmol. 384-well streptavidin Flashplates were purchased from PerkinElmer.
Peptide representative of human histone H4 residues 36-50 was synthesized with an N-terminal linker-affinity tag motif and a C-terminal amide cap by 21st Century Biochemicals. The peptide was purified by high-performance liquid chromatography (HPLC) to greater than 95% purity and confirmed by liquid chromatography mass spectrometry (LC-MS). The sequence was Biot-Ahx-[…]-amide (SEQ ID NO.: 1).
Full-length human PRMT1 isoform 1 (NM_001536.5) transcript clone was amplified from an HEK 293 cDNA library, incorporating flanking 5′ sequence encoding a FLAG tag ([…]) (SEQ ID NO.: 2) fused directly to Met 1 of PRMT1. The amplified gene was subcloned into pFastBacI (Life Technologies) modified to encode an N-terminal GST tag and a TEV cleavage sequence ([…] […] […] […] QGGNS)(SEQ ID NO.: 3) fused to Asp of the Flag tag of PRMT1.
Recombinant baculovirus were generated according to Bac-to-Bac kit instructions (Life Technologies). Protein over-expression was accomplished by infecting exponentially growing High Five insect cell culture at 1.5×10^6 cell/ml with 1:100 ratio of virus. Infections were carried out at 27° C. for 48 hours, harvested by centrifugation, and stored at −80° C. for purification.
GST-tagged PRMT1 was eluted with 50 mM Tris, 2 mM glutathione, pH 7.8, dialysed in buffer A and concentrated to 1 mg/mL. The purity of recovered protein was 73%. Reference: Wasilko, D. J. and S. E. Lee: “TIPS: titerless infected-cells preservation and scale-up” Bioprocess J., 5 (2006), pp. 29-32.
General Procedure for PRMT1 Enzyme Assays on Peptide Substrates.
The assays were all performed in a buffer consisting of 20 mM Bicine (pH=7.6), 1 mM TCEP, 0.005% BSG, and 0.002% Tween 20, prepared on the day of use. Compounds in 100% DMSO (1 ul) were spotted into a polypropylene 384-well V-bottom plates (Greiner) using a Platemate Plus outfitted with a 384-channel head (Thermo Scientific). DMSO (1 ul) was added to Columns 11, 12, 23, 24, rows A-H for the maximum signal control and 1 ul of SAH, a known product and inhibitor of PRMT1, was added to columns 11, 12, 23, 24, rows I-P for the minimum signal control. A cocktail (40 ul) containing the PRMT1 enzyme was added by Multidrop Combi (Thermo-Fisher). The compounds were allowed to incubate with PRMT1 for 30 min at room temperature, then a cocktail (10 ul) containing SAM and peptide was added to initiate the reaction (final volume=51 ul). The final concentrations of the components were as follows: PRMT1 was 0.5 nM, ^3H-SAM was 200 nM, non-radiolabeled SAM was 1.5 uM, peptide was 20 nM, SAH in the minimum signal control wells was 1 mM, and the DMSO concentration was 2%. The assays were stopped by the addition of non-radiolabeled SAM (10 ul) to a final concentration of 300 uM, which dilutes the ^3H-SAM to a level where its incorporation into the peptide substrate is no longer detectable. 50 ul of the reaction in the 384-well polypropylene plate was then transferred to a 384-well Flashplate and the biotinylated peptides were allowed to bind to the streptavidin surface for at least 1 hour before being washed once with 0.1% Tween20 in a Biotek ELx405 plate washer. The plates were then read in a PerkinElmer TopCount plate reader to measure the quantity of ^3H-labeled peptide bound to the Flashplate surface, measured as disintegrations per minute (dpm) or alternatively, referred to as counts per minute (cpm).
Where dpm=disintegrations per minute, cmpd=signal in assay well, and min and max are the respective minimum and maximum signal controls. […]

Another experiment concerns the target PRMT5 (Homo sapiens, UniProt O14744). Kind of experiment: PRMT5 IC50 (Table 2; no method described). It is filed as biochemical. As to conditions: read-out: PRMT5_ IC50.
The subject of experiment [1] is asymmetric di-methyl PABP1 in RKO cells. Kind of experiment: In Cell Western (ICW) for asymmetric di-methyl PABP1 and DNA content in RKO cells. The conditions noted are these: Homo sapiens, RKO, In Cell Western. The class given is cell-based. A digest of the protocol: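 RKO cells treated with compound for 48 h at 37 °C, then fixed, methanol-permeabilized and stained for asymmetric di-methyl PABP1 (800 nm) with DRAQ5 DNA stain (700 nm). Signal ratio normalized to DMSO and 20 μM reference-compound controls. IC50 from nine 3-fold dilutions in triplicate.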

In a further experiment the target is T2, Human CARM1 (PRMT4) (Homo sapiens, UniProt Q86X55).
T2 construct: Flag-CARM1-His; made in house; host or cells: HEK 293F cells (BacMam baculovirus, pFastBacMam)
T2 sequence (Q86X55 2-585 isoform Q86X55-1): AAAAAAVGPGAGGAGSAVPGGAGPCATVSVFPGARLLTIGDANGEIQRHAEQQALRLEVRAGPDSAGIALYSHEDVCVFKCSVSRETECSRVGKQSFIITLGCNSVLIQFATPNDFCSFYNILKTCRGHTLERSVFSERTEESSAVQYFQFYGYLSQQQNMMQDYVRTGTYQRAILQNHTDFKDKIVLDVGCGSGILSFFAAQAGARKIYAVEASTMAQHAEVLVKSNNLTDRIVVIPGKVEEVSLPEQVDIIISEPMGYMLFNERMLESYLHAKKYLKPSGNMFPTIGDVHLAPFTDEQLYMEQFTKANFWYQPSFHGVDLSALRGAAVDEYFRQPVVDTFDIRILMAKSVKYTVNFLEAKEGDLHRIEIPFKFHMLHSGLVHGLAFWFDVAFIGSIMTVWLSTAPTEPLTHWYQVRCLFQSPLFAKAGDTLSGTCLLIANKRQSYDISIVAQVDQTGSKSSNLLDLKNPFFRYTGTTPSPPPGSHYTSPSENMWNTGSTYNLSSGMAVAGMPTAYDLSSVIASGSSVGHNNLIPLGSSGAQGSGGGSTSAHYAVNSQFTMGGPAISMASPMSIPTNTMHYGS
The experiment can be described thus: CARM1 biochemical assay (3H-SAM Flashplate, peptide substrate). As to conditions: read-out: CARM1_ IC50. A digest of the protocol:
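FLAG/His-tagged human CARM1 (isoform 1, Δ539-561, baculovirus-expressed), 0.25 nM, preincubated 30 min at room temperature with compound (2% DMSO) in 20 mM Bicine pH 7.6, then reacted with 30 nM 3H-SAM and 250 nM biotinylated H3 16-30 peptide (R26 monomethyl). Stopped with 300 uM cold SAM; labelled peptide captured on streptavidin Flashplate; % inhibition versus DMSO and 1 mM SAH controls fitted to a 4- or 3-parameter curve.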

Sequence of PRMT5 (O14744 whole entry, species assumed): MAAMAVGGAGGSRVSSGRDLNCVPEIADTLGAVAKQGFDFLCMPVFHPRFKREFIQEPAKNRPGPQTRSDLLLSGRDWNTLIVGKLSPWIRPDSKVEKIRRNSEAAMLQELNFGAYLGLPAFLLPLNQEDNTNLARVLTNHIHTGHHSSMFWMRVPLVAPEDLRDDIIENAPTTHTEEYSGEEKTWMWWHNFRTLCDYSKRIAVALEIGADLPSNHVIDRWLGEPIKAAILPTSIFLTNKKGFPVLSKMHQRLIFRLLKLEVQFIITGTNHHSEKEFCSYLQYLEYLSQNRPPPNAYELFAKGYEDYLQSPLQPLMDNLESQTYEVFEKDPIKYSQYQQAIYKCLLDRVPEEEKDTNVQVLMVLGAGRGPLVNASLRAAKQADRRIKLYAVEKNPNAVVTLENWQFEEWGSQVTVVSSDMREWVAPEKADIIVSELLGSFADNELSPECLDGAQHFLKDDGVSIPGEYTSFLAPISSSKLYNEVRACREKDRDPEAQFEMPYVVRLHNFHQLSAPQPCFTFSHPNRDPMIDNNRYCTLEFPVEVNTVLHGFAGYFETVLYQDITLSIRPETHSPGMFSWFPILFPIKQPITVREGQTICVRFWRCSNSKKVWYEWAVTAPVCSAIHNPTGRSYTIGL
Sequence of PRMT5 (Q9BQA1 whole entry partner, species assumed): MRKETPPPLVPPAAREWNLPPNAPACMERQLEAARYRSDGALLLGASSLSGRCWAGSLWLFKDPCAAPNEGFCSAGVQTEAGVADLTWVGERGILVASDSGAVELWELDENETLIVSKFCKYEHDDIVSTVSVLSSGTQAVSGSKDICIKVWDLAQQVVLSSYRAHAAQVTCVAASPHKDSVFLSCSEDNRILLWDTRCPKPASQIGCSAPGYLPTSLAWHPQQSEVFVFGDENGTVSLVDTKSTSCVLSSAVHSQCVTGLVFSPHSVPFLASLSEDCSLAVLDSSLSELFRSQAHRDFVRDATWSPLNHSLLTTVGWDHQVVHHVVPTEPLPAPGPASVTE
T1 sequence (Q99873 with tags, fused parts or gaps): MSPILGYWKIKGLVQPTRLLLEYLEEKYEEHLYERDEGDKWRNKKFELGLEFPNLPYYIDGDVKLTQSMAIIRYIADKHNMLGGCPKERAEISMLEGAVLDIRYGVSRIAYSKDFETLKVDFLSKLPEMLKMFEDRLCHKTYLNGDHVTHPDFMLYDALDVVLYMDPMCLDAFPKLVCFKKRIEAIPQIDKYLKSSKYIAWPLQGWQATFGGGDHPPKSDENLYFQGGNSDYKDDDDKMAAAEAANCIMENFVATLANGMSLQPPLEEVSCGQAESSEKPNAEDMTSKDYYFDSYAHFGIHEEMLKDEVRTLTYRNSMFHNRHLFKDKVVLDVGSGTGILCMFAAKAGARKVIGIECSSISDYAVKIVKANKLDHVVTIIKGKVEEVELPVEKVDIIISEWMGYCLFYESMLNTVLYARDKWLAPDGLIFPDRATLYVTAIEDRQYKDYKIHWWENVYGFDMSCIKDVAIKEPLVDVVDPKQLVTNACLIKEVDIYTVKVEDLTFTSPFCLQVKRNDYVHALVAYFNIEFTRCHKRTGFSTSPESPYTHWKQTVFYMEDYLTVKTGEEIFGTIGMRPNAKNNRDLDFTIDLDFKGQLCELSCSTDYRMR

For `COc1cccc(Cn2cnc3ccc(-c4ccc(CNCCN)cc4)cc32)c1` [Compound 90], the IC50 is 430 nM at human PRMT1 and 125 nM on PRMT5.

Regarding `Cc1cccc(Cn2cnc3ccc(-c4ccc(CNCCN)cc4)cc32)c1` [Compound 127], the figures for the IC50 at human PRMT1 and at PRMT5 were 802 nM and 74.5 nM, respectively.

`N#Cc1ccc(-n2cnc3ccc(-c4ccc(CNCCN)cc4)cc32)cc1` [Compound 149]: the values for the IC50 at human PRMT1 and at PRMT5 were 1530 nM and 238 nM, respectively.

Take `CN(C)C(=O)c1ccc(Cn2cnc3ccc(-c4ccc(CNCCN)cc4)cc32)cc1` [Compound 147]: the IC50 worked out at 1330 nM at human PRMT1 and 129 nM at PRMT5.

As to `NCCNCc1ccc(-c2ccc3ncn(-c4ccccc4)c3c2)cc1` [Compound 113], the 50% inhibitory concentration (IC50) at human PRMT1 was 604 nM; at PRMT5, 366 nM.

Consider `COc1ccc(-n2cnc3ccc(-c4ccc(CNCCN)cc4)cc32)cc1` [Compound 89], for which the IC50 on human PRMT1 worked out at 414 nM; at PRMT5 it was 417 nM.

Consider `NCCNCc1ccc(-c2ccc3[nH]c(=O)n(-c4ccccc4)c3c2)cc1` [Compound 91], for which the values for the IC50 at human PRMT1 and at PRMT5 were 431 nM and 502 nM, respectively.

`NCCNCc1ccc(-c2ccc3nc(-c4ccc5cccnc5c4)[nH]c3c2)cc1` [Compound 77]: the figures for the IC50 at human PRMT1 and on PRMT5 were 317 nM and 258 nM, respectively.

Regarding `Cc1cc(C)c(CNC(=O)c2ccnc(-c3cccc(CN(C)CCN)c3)c2)c(=O)[nH]1` [Compound 376], the IC50 turned out to be 202 nM on human PRMT1 and 24400 nM on PRMT5.

For `Cn1cnc2ccc(-c3ccc(CNCCN)cc3)cc21` [Compound 165], the half-inhibitory concentration (IC50) on human PRMT1 came out at 4530 nM; at PRMT5, 250 nM.

With `Cc1[nH]c2ncc(-c3ccc(CNCCN)cc3)cc2c1C` [Compound 140], the IC50 at human PRMT1 is 1090 nM; on PRMT5, 128 nM; in experiment [1], 12500 nM.

Regarding `CC(C)n1ncc2c(C(=O)N3CCc4ccccc4C3)cc(-c3cccc(CNCCN)c3)nc21` [Compound 269], the half-maximal inhibitory concentration (IC50) was 79.9 nM at Human CARM1 (PRMT4) and 13100 nM on PRMT5.

Regarding `CNCCN(C)Cc1cccc(-c2cc(C(=O)N(C)Cc3cccc(Cl)c3)c3cnn(C(C)C)c3n2)c1` [Compound 237], the results for the IC50 at Human CARM1 (PRMT4) and at PRMT5 were 48.1 nM and 1480 nM, respectively.

For the molecule `CNCCNCc1ccc(-c2cncc(C(=O)NCc3c(C)cc(C)[nH]c3=O)c2)cc1` [Compound 377], the IC50 was 204 nM on human PRMT1 and 36500 nM on PRMT5.

In the case of `CC(=O)c1cccc(Cn2ncc3ccc(-c4ccc(CNCCN)cc4)cc32)c1` [Compound 343], the IC50 at Human CARM1 (PRMT4) was 8890 nM; at PRMT5, 119 nM.

In the case of `CC(C)n1ncc2c(C(=O)N(C)Cc3ccccc3F)cc(-c3cccc(CN(C)CCN)c3)nc21` [Compound 250], the IC50 on Human CARM1 (PRMT4) amounted to 58.3 nM; on PRMT5, 816 nM.

On to `NCCNCc1ccc(-c2ccc3ncn(C4CCCC4)c3c2)cc1` [Compound 146], for which the concentration for half-maximal inhibition (IC50) was 1330 nM at human PRMT1 and 173 nM at PRMT5.

For the molecule `Cc1cc2cc(-c3ccc(CNCCN)cc3)cnc2[nH]1` [Compound 152], the results for the IC50 on human PRMT1 and at PRMT5 were 1690 nM and 316 nM, respectively.

For `COc1ccc(Cn2cnc3ccc(-c4cccc(CNCCN)c4)cc32)cc1` [Compound 309], the figures for the IC50 on Human CARM1 (PRMT4) and at PRMT5 were 272 nM and 1070 nM, respectively.

Consider `NCCNCc1ccc(-c2ccc3ncn(Cc4cccc(C(=O)NC5CC5)c4)c3c2)cc1` [Compound 342], for which the IC50 at Human CARM1 (PRMT4) amounted to 6480 nM; on PRMT5 it was 110 nM.

On to `NCCNCc1ccc(-c2ccc3ncn(Cc4cccc(C(=O)NC5CCOCC5)c4)c3c2)cc1` [Compound 347], for which the figures for the concentration for half-maximal inhibition (IC50) on Human CARM1 (PRMT4) and on PRMT5 were 10000 nM and 181 nM, respectively.

With `CNCCN(C)Cc1cccc(-c2cc(C(=O)N[C@@H](C)c3ccccc3)c3cnn(-c4ccccn4)c3n2)c1` [Compound 303], the IC50 came to 235 nM at Human CARM1 (PRMT4) and 13300 nM on PRMT5.
